BindingDB's records for PubMed 34286973 (University of Chinese Academy of Sciences, 2021)

Target: E3 ubiquitin-protein ligase Mdm2 (Homo sapiens, UniProt Q00987)
Assay: Binding affinity to human MDM2 assessed as dissociation constant

E3 ubiquitin-protein ligase Mdm2, sequence (Q00987 whole entry): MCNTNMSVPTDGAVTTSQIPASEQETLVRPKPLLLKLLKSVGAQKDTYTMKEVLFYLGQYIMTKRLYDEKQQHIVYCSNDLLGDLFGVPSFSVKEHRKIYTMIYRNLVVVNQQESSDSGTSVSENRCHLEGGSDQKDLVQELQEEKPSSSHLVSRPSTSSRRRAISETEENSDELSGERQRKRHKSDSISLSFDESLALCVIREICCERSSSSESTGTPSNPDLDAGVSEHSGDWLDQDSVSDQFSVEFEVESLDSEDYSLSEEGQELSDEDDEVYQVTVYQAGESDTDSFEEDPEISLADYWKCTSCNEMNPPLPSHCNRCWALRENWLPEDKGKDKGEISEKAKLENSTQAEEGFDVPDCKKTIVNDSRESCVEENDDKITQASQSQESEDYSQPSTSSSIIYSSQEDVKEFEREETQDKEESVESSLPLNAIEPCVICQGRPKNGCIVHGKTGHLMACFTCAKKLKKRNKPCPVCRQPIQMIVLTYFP

O=C(CN(Cc1ccc(Cl)cc1)C(=O)c1cc2ccccc2[nH]1)NC1CCCCC1
Ki: 54 µM
